In patent publication US10188634B2, “3-(3H-imidazo[4,5-C]pyridin-2-yl)-1 H-pyrazolo[4,3-B]pyridines and therapeutic uses thereof” (Samumed, LLC, priority 2015, dated 2019):

System: Wnt activity (Sp5-Luc reporter, human Sp5 promoter with eight TCF/LEF binding sites) in SW480 colon carcinoma cells
Assay: Screening assay for Wnt activity: Sp5-Luc reporter gene assay in SW480 cells
Assay type: cell-based
Conditions: for inhibition at 10 µM: read-out: percent inhibition at 10 μM (given for EC50 of >10 μM); for EC50: 10-point dose-response starting from 10 μM, overnight incubation
Text: The screening assay for Wnt activity is described as follows. Reporter cell lines can be generated by stably transducing cancer cell lines (e.g., colon cancer) or primary cells (e.g., IEC-6 intestinal cells) with a lentiviral construct that includes a Wnt-responsive promoter driving expression of the firefly luciferase gene.
SW480 colon carcinoma cells were transduced with a lentiviral vector expressing luciferase with a human Sp5 promoter consisting of a sequence of eight TCF/LEF binding sites. SW480 cells stably expressing the Sp5-Luc reporter gene and a hygromycin resistance gene were selected by treatment with 150 μg/mL of hygromycin for 7 days. These stably transduced SW480 cells were expanded in cell culture and used for all further screening activities. Each compound was dissolved in DMSO as a 10 mM stock and used to prepare compound source plates. Serial dilution (1:3, 10-point dose-response curves starting from 10 μM) and compound transfer was performed using the ECHO 550 (Labcyte, Sunnyvale, Calif.) into 384-well white solid bottom assay plates (Greiner Bio-One) with appropriate DMSO backfill for a final DMSO concentration of 0.1%. For Sp5-Luc reporter gene assays, the cells were plated at 4,000 cells/well in 384-well plates with medium containing 1% fetal bovine serum and incubated overnight at 37° C. and 5% CO2. Following incubation, 20 μl of BrightGlo luminescence reagent (Promega) was added to each well of the 384-well assay plates. The plates were placed on an orbital shaker for 2 min and then luminescence was quantified using the Envision (Perkin Elmer) plate reader. Readings were normalized to DMSO only treated cells, and normalized activities were utilized for EC50 calculations using the dose-response log (inhibitor) vs. response -variable slope (four parameters) nonlinear regression feature available in GraphPad Prism 5.0 (or Dotmatics). For EC50 of >10 μM, the percent inhibition at 10 μM is provided.

EC50	SMILES	inhibition at 10 µM
> 10 µM	CC(C)(C)CC(=O)Nc1cncc(-c2ccc3[nH]nc(-c4nc5c(-c6ccccc6F)cncc5[nH]4)c3n2)c1 [Compound 72, N-(5-(3-(7-(2-fluorophenyl)-3H-imidazo[4,5-c]pyridin-2-yl)-1H-pyrazolo[4,3-b]pyridin-5-yl)pyridin-3-yl)-3,3-dimethylbutanamide]	5.7%
> 10 µM	O=C(Nc1cncc(-c2ccc3[nH]nc(-c4nc5c(-c6ccccc6F)cncc5[nH]4)c3n2)c1)C1CCCC1 [Compound 78, N-(5-(3-(7-(2-Fluorophenyl)-3H-imidazo[4,5-c]pyridin-2-yl)-1H-pyrazolo[4,3-b]pyridin-5-yl)pyridin-3-yl)cyclopentanecarboxamide]	6.6%
> 10 µM	c1ccc(CNCc2cncc(-c3ccc4[nH]nc(-c5nc6c(-c7cccnc7)cncc6[nH]5)c4n3)c2)cc1 [Compound 108, N-Benzyl-1-(5-(3-(7-(pyridin-3-yl)-3H-imidazo[4,5-c]pyridin-2-yl)-1H-pyrazolo[4,3-b]pyridin-5-yl)pyridin-3-yl)methanamine]	5.3%
> 10 µM	c1cc(-c2ccc3[nH]nc(-c4nc5c(-c6ccncc6)cncc5[nH]4)c3n2)ccn1 [Compound 130, 5-(pyridin-4-yl)-3-(7-(pyridin-4-yl)-3H-imidazo[4,5-c]pyridin-2-yl)-1H-pyrazolo[4,3-b]pyridine]	9.8%
> 10 µM	O=C(Nc1cncc(-c2ccc3[nH]nc(-c4nc5c(-c6ccncc6)cncc5[nH]4)c3n2)c1)C1CCCCC1 [Compound 135, N-(5-(3-(7-(pyridin-4-yl)-3H-imidazo[4,5-c]pyridin-2-yl)-1H-pyrazolo[4,3-b]pyridin-5-yl)pyridin-3-yl)cyclohexanecarboxamide]	1.2%
> 10 µM	O=C(Nc1cncc(-c2ccc3[nH]nc(-c4nc5c(-c6ccccn6)cncc5[nH]4)c3n2)c1)c1ccccc1 [Compound 151, N-(5-(3-(7-(Pyridin-2-yl)-3H-imidazo[4,5-c]pyridin-2-yl)-1H-pyrazolo[4,3-b]pyridin-5-yl)pyridin-3-yl)benzamide]	23.9%
> 10 µM	CN1CCN(c2cncc3[nH]c(-c4n[nH]c5ccc(-c6cncc(NC(=O)C7CCCC7)c6)nc45)nc23)CC1 [Compound 246, N-(5-(3-(7-(4-Methylpiperazin-1-yl)-3H-imidazo[4,5-c]pyridin-2-yl)-1H-pyrazolo[4,3-b]pyridin-5-yl)pyridin-3-yl)cyclopentanecarboxamide]	3.9%
> 10 µM	CN1CCN(c2cncc3[nH]c(-c4n[nH]c5ccc(-c6cncnc6)nc45)nc23)CC1 [Compound 251, 3-(7-(4-Methylpiperazin-1-yl)-3H-imidazo[4,5-c]pyridin-2-yl)-5-(pyrimidin-5-yl)-1H-pyrazolo[4,3-b]pyridine]	14.4%
> 10 µM	O=C(Nc1cncc(-c2ccc3[nH]nc(-c4nc5c(-c6ccsc6)cncc5[nH]4)c3n2)c1)c1ccccc1 [Compound 263, N-(5-(3-(7-(Thiophen-3-yl)-3H-imidazo[4,5-c]pyridin-2-yl)-1H-pyrazolo[4,3-b]pyridin-5-yl)pyridin-3-yl)benzamide]	7.6%
> 10 µM	c1csc(-c2cncc3[nH]c(-c4n[nH]c5ccc(-c6ccncc6)nc45)nc23)c1 [Compound 326, 5-(Pyridin-4-yl)-3-(7-(thiophen-2-yl)-3H-imidazo[4,5-c]pyridin-2-yl)-1H-pyrazolo[4,3-b]pyridine]	12.7%
> 10 µM	O=C(Nc1cncc(-c2ccc3[nH]nc(-c4nc5c(-c6cccs6)cncc5[nH]4)c3n2)c1)C1CC1 [Compound 328, N-(5-(3-(7-(Thiophen-2-yl)-3H-imidazo[4,5-c]pyridin-2-yl)-1H-pyrazolo[4,3-b]pyridin-5-yl)pyridin-3-yl)cyclopropanecarboxamide]	3.7%
> 10 µM	Cc1ccc(-c2cncc3[nH]c(-c4n[nH]c5ccc(-c6cncc(NC(=O)C7CCCC7)c6)nc45)nc23)s1 [Compound 386, N-(5-(3-(7-(5-Methylthiophen-2-yl)-3H-imidazo[4,5-c]pyridin-2-yl)-1H-pyrazolo[4,3-b]pyridin-5-yl)pyridin-3-yl)cyclopentanecarboxamide]	8.7%
> 10 µM	CS(=O)(=O)NCc1cc(F)cc(-c2cncc3[nH]c(-c4n[nH]c5ccc(-c6cncc(NC(=O)c7ccccc7)c6)nc45)nc23)c1 [Compound 459, N-(5-(3-(7-(3-Fluoro-5-(methylsulfonamidomethyl)phenyl)-3H-imidazo[4,5-c]pyridin-2-yl)-1H-pyrazolo[4,3-b]pyridin-5-yl)pyridin-3-yl)benzamide]	9.6%
> 10 µM	CS(=O)(=O)NCc1cc(F)cc(-c2cncc3[nH]c(-c4n[nH]c5ccc(-c6cncc(CNCc7ccccc7)c6)nc45)nc23)c1 [Compound 472, N-(3-(2-(5-(5-((Benzylamino)methyl)pyridin-3-yl)-1H-pyrazolo[4,3-b]pyridin-3-yl)-3H-imidazo[4,5-c]pyridin-7-yl)-5-fluorobenzyl)methanesulfonamide]	20.1%
> 10 µM	CS(=O)(=O)NCc1cc(F)cc(-c2cncc3[nH]c(-c4n[nH]c5ccc(-c6cncnc6)nc45)nc23)c1 [Compound 475, N-(3-Fluoro-5-(2-(5-(pyrimidin-5-yl)-1H-pyrazolo[4,3-b]pyridin-3-yl)-3H-imidazo[4,5-c]pyridin-7-yl)benzyl)methanesulfonamide]	31.4%
> 10 µM	c1cncc(-c2cncc3[nH]c(-c4n[nH]c5ccc(-c6cncc(OC7CCCCC7)c6)nc45)nc23)c1 [Compound 531, 5-(5-(Cyclohexyloxy)pyridin-3-yl)-3-(7-(pyridin-3-yl)-3H-imidazo[4,5-c]pyridin-2-yl)-1H-pyrazolo[4,3-b]pyridine]	24.3%
> 10 µM	Oc1cncc(-c2ccc3[nH]nc(-c4nc5c(-c6cccnc6)cncc5[nH]4)c3n2)c1 [Compound 537, 5-(3-(7-(Pyridin-3-yl)-3H-imidazo[4,5-c]pyridin-2-yl)-1H-pyrazolo[4,3-b]pyridin-5-yl)pyridin-3-ol]	9.9%
> 10 µM	c1cc(-c2cncc3[nH]c(-c4n[nH]c5ccc(-c6cncc(OC7CCNCC7)c6)nc45)nc23)ccn1 [Compound 548, 5-(5-(Piperidin-4-yloxy)pyridin-3-yl)-3-(7-(pyridin-4-yl)-3H-imidazo[4,5-c]pyridin-2-yl)-1H-pyrazolo[4,3-b]pyridine]	16.1%
> 10 µM	c1ccc(COc2cncc(-c3ccc4[nH]nc(-c5nc6c(-c7ccncc7)cncc6[nH]5)c4n3)c2)cc1 [Compound 554, 5-(5-(Benzyloxy)pyridin-3-yl)-3-(7-(pyridin-4-yl)-3H-imidazo[4,5-c]pyridin-2-yl)-1H-pyrazolo[4,3-b]pyridine]	0%
> 10 µM	c1cc(-c2cncc3[nH]c(-c4n[nH]c5ccc(-c6cnccn6)nc45)nc23)ccn1 [Compound 556, 5-(Pyrazin-2-yl)-3-(7-(pyridin-4-yl)-3H-imidazo[4,5-c]pyridin-2-yl)-1H-pyrazolo[4,3-b]pyridine]	9.5%
> 10 µM	Cn1cc(-c2ccc3[nH]nc(-c4nc5c(-c6cccs6)cncc5[nH]4)c3n2)cn1 [Compound 656, 5-(1-Methyl-1H-pyrazol-4-yl)-3-(7-(thiophen-2-yl)-3H-imidazo[4,5-c]pyridin-2-yl)-1H-pyrazolo[4,3-b]pyridine]	3%
> 10 µM	CN(C)CCOc1cncc(-c2ccc3[nH]nc(-c4nc5c(-c6cccs6)cncc5[nH]4)c3n2)c1 [Compound 663, N,N-Dimethyl-2-((5-(3-(7-(thiophen-2-yl)-3H-imidazo[4,5-c]pyridin-2-yl)-1H-pyrazolo[4,3-b]pyridin-5-yl)pyridin-3-yl)oxy)ethan-1-amine]	46.7%
> 10 µM	Cn1cc(-c2ccc3[nH]nc(-c4nc5c(-c6cc(F)cc(CNS(C)(=O)=O)c6)cncc5[nH]4)c3n2)cn1 [Compound 720, N-(3-Fluoro-5-(2-(5-(1-methyl-1H-pyrazol-4-yl)-1H-pyrazolo[4,3-b]pyridin-3-yl)-3H-imidazo[4,5-c]pyridin-7-yl)benzyl)methanesulfonamide]	16.4%

SMILES	EC50	inhibition at 10 µM
Cc1ccc(-c2cncc3[nH]c(-c4n[nH]c5ccc(C6=CCNCC6)nc45)nc23)s1 [Compound 686, 3-(7-(5-Methylthiophen-2-yl)-3H-imidazo[4,5-c]pyridin-2-yl)-5-(1,2,3,6-tetrahydropyridin-4-yl)-1H-pyrazolo[4,3-b]pyridine]	> 10 µM	52.6%
